Data reported in ChEMBL document CHEMBL1817633, “Evaluation of a cell penetrating prenylated peptide lacking an intrinsic fluorophore via in situ click reaction” (Bioorg Med Chem Lett, 2011).
Peptide text beside a SMILES is read from it. * marks the point of attachment. Geranylgeranyl = CC(C)=CCC/C(C)=C/CC/C(C)=C/CC/C(C)=C/C*; X1 = O=C(O)c1cc(C(=O)*)ccc1-c1c2ccc(=O)cc-2oc2cc(O)ccc12; Pent4ynoyl = C#CCCC(=O)*

How the values were obtained:
Format in all cases: ADME, cell-based
HeLa [1] = experiment: Cellular uptake in human HeLa cells assessed as nuclear localization at 1 uM after 2 hrs by confocal laser scanning microscopy
HeLa [2] = experiment: Cellular uptake in human HeLa cells at 1 uM after 2 hrs by confocal laser scanning microscopy
HeLa [3] = experiment: Cellular uptake in human HeLa cells at 1 to 5 uM treated for 1 hr followed by washout measured after 1 hr by flow cytometry

Row | Drug uptake (HeLa [1]) | Drug uptake (HeLa [2]) | Drug uptake (HeLa [3]) | SMILES
1 | Active | Active | – | C#CCCC(=O)N[C@@H](CCCCNC(C)=O)C(=O)N[C@@H](C)C(=O)N[C@@H](CCCCN)C(=O)N[C@@H](CCCCN)C(=O)N[C@@H](CO)C(=O)N[C@@H](CCCNC(=N)N)C(=O)N[C@@H](CCCNC(=N)N)C(=O)N[C@@H](CSC/C=C(\C)CC/C=C(\C)CC/C=C(\C)CCC=C(C)C)C(N)=O (Pent4ynoyl-K(Ac)AKKSRRC(Geranylgeranyl)-NH2)
2 | Not Active | Active | Active | C#CCCC(=O)N[C@@H](CCCCNC(=O)c1ccc(-c2c3ccc(=O)cc-3oc3cc(O)ccc23)c(C(=O)O)c1)C(=O)N[C@@H](C)C(=O)N[C@@H](CCCCN)C(=O)N[C@@H](CCCCN)C(=O)N[C@@H](CO)C(=O)N[C@@H](CCCNC(=N)N)C(=O)N[C@@H](CCCNC(=N)N)C(=O)N[C@@H](CSC/C=C(\C)CC/C=C(\C)CC/C=C(\C)CCC=C(C)C)C(N)=O (Pent4ynoyl-K(X1)AKKSRRC(Geranylgeranyl)-NH2)
